In assay [1] the test system is Azole-susceptible and Azole-resistant Candida albicans Strains. Put plainly: Antifungal activity against azole-susceptible and azole-resistant patient isolates. The class given is cell-based. Conditions: for IC50 / IC80: Candida albicans; for Activity against fluconazole-resistant C. albicans strains (in words): isolates from patients during fluconazole therapy. The protocol: Antimicrobial Assay. Susceptibility testing is performed using a modified version of the National Committee for Clinical Laboratory Standards methods. M intracelluare is tested using a modified method of Franzblau, et al. Seventy-two to 96 h prior to the assay, the M intracellulare subculture is prepared by resuspending cells from the surface of the slant in Middlebrook 7H9 broth with OADC enrichment and incubating at 37° C. and 10% CO2. On the day of the assay, prepared samples (dissolved in DMSO) are serially-diluted using 20%/0.9% DMSO/saline and transferred in duplicate to 96 well flat bottom microplates. Candida spp. and C. neoformans inocula are prepared by picking 1–3 colonies from agar plates and resuspending in ˜5 mL 0.9% sterile saline. The absorption of 10011 of the saline suspensions and the M. intracellulare subculture at 630 nm using the EL-340 Biokinetics Reader (Bio-Tek Instruments, Vermont) is compared either the 0.5 McFarland standard of 0.03 (Mi) or standard curves. The microorganisms are diluted in broth [RPMI 1640/2% dextrose/MOPS at pH 7.3 (Cellgro) for Candida spp., Sabouraud Dextrose for C. neoformans, and 5% Alamar Blue™(BioSource International, Camarillo, Calif.) in Middlebrook 7H9 broth with OADC enrichment, pH=7.3 for M. intracellulare to afford final target inocula of: Candida spp.: 1.0×10^4, C. neoformans: 1.0×10^5, and M. intracellulare: 2.0×10^6 after addition to the samples. The microbial inocula are added to the samples to achieve a final volume of 200 μl. Growth (saline only), solvent and blank (media only) controls are included on each test plate. Drug controls [Ciprofloxacin (ICN Biomedicals, Ohio) for bacteria and Amphotericin B (ICN Biomedicals, Ohio) for fungi] are included in each assay. All organisms are read at either 630 nm using the EL-340 Biokinetics Reader (Bio-Tek Instruments, Vermont) or 544ex/590em, (M. intracellulare) using the Polarstar Galaxy Plate Reader (BMG LabTechnologies, Germany) prior to and after incubation: Candida spp. at 37° C. for 18–24 h, C. neoformans at 30° C. for 72 h, and M. intracellulare at 37° C. and 10% CO2 for 72 h. Percent growth is calculated and plotted versus test concentration to afford the IC50 (sample concentration that affords 50% growth of the organism) and the minimum inhibitory concentration (MIC) and minimum fungicidal or bactericidal concentrations (MFC/MBCs). The MIC is defined as the lowest test concentration that allows no detectable growth (for M. intracellulare no color change from blue to pink). Minimum fungicidal or bactericidal concentrations are determined by removing 5 μl from each clear (or blue) well, transferring to agar and incubating as previously mentioned. The MFC/MBC is defined as the lowest test concentration that kills 100% of the organism (allows no growth on agar).
The bioassay method is a modified version of the National Committee for Clinical Laboratory Standards methods, and is same as the one described in example 8 by which the biological data of compounds 1 and 2 (Tables 1 and 2) were obtained, except that the pH of the culture media for Candida spp. was changed from 7.3 to 4.5.

The subject of assay [2] is M. intracellulare ATCC 23068. In words: In vitro antibacterial assay (modified method of Franzblau, Alamar Blue). The class given is cell-based. Conditions: Mycobacterium intracellulare.
[3] abbreviates: Isolate 1, azole-susceptible strain (first listing, r6).
[4] abbreviates: Isolate 1, azole-susceptible strain (second listing, r10).
Where [5] appears, read: Isolate 2, azole-resistant strain.
Setting [6] is: Isolate 5, azole-resistant strain.
The mark [7] stands for this setting: Isolate 8, azole-resistant strain.
[8] abbreviates: Isolate 17, azole-resistant strain.

In brackets after ≈: the same amount, converted by molar mass.

As for `COC(/C=C/c1ccccc1)=C1\C(=O)C=C(C)C1=O` [Compound 1, coruscanone A], the IC50 came out at 0.6 µg/mL (≈ 2.36 µM) in assay [1] (setting [3]); 0.45 µg/mL (≈ 1.77 µM) in assay [1] (setting [4]); 0.9 µg/mL (≈ 3.54 µM) in assay [1] (setting [5]); 0.4 µg/mL (≈ 1.57 µM) in assay [1] (setting [6]); 0.9 µg/mL (≈ 3.54 µM) in assay [1] (setting [7]); 0.3 µg/mL (≈ 1.18 µM) in assay [1] (setting [8]). Further, in assay [2] (ATCC23068, read-out: IC50 (50% inhibitory concentration)), the IC50 turned out to be 1.5 µg/mL (≈ 5.9 µM). Besides, the IC80 – broadly, the concentration needed for an effect of 80% – stood at 1 µg/mL (≈ 3.93 µM) in assay [1] (setting [3]); 0.6 µg/mL (≈ 2.36 µM) in assay [1] (setting [4]); 1 µg/mL (≈ 3.93 µM) in assay [1] (setting [5]); 0.6 µg/mL (≈ 2.36 µM) in assay [1] (setting [6]); 1 µg/mL (≈ 3.93 µM) in assay [1] (setting [7]); 0.9 µg/mL (≈ 3.54 µM) in assay [1] (setting [8]). Moreover, the IC95 (in general, the concentration at which the effect reaches the 95% level) in assay [1] (setting [3]) is 1.50 µg/mL (≈ 5.9 µM); in assay [1] (setting [4]) it was 0.75 µg/mL (≈ 2.95 µM); in assay [1] (setting [5]) it was 1.50 µg/mL (≈ 5.9 µM); in assay [1] (setting [6]), 0.70 µg/mL (≈ 2.75 µM); in assay [1] (setting [7]), 1.50 µg/mL (≈ 5.9 µM); in assay [1] (Isolate 17, azole-resistant strain, highest test concentration 100 μg/mL), 1.50 µg/mL (≈ 5.9 µM). Also, the “Activity against fluconazole-resistant C. albicans strains (in words)” value in assay [1] is “retains equivalent activity relative to the susceptible strains”; in assay [1] (listed as coruscanone A), “inhibits”. Further, the lowest concentration to inhibit growth in assay [2] (ATCC23068, M. intracellulare ATCC 23068) (MIC) was 2.5 µg/mL (≈ 9.83 µM). In assay [2] (ATCC23068, M. intracellulare ATCC 23068, read-out: MBC (Minimum Bactericidal Concentration)), the MBC was 5 µg/mL (≈ 19.7 µM).

(Values after patent publication US7109380B2, “Cyclopentenedione antifungal compounds and methods for their use” (The University of Mississippi, priority 2004, dated 2006).)
